Laboratory results reported in patent US11351151B2, “Compound having anticancer activity and preparation method and application” (3D Medicines (Beijing) Co., Ltd., priority 2016, dated 2022).

Assays:
Assay in all cases: Cell proliferation assay (Alamar Blue)
Assay type in all cases: cell-based
DU145 = conditions: Homo sapiens, DU-145, 144 h; DU145 tumor cell line; 6 days
Summary of the method: (§1)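 6 d continuous exposure, 37 °C/5% CO2; 9 conc., 3.16× steps from 30 or 100 μM; n=2/conc. Readout resazurin fluor. 560/590 nm, 1–4 h dye. % inhib. normalised to 0%/100% inhibition controls → IC50 (4-param).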

SNU398 = conditions: Homo sapiens, SNU-398, 144 h; SNU398 liver cancer cell line; 6 days
Summary of the method: as §1

SNU475 = conditions: Homo sapiens, SNU-475, 144 h; SNU475 liver cancer cell line; 6 days
Summary of the method: as §1

NCl-H2170 = conditions: 144 h; NCl-H2170 tumor cell line; 6 days
Summary of the method: as §1

NCl-H526 = conditions: 144 h; NCl-H526 tumor cell line; 6 days
Summary of the method: as §1

HLE = conditions: Homo sapiens, 144 h; HLE liver cancer cell line; 6 days
Summary of the method: as §1

CCRF-CEM = conditions: Homo sapiens, 144 h; CCRF-CEM tumor cell line; 6 days
Summary of the method: as §1

HT1080 = conditions: Homo sapiens, HT-1080, 144 h; HT1080 tumor cell line; 6 days
Summary of the method: as §1

HUH6 = conditions: Homo sapiens, HuH-6, 144 h; HUH6 liver cancer cell line; 6 days
Summary of the method: as §1

SNU886 = conditions: SNU-886, 144 h; SNU886 liver cancer cell line; 6 days
Summary of the method: as §1

SK-HEP-1 = conditions: Homo sapiens, SK-HEP1, 144 h; SK-HEP-1 liver cancer cell line; 6 days
Summary of the method: as §1

MDA-MB-231 = conditions: Homo sapiens, 144 h; MDA-MB-231 tumor cell line; 6 days
Summary of the method: as §1

JHH2 = conditions: JHH-2, 144 h; JHH2 liver cancer cell line; 6 days
Summary of the method: as §1

HUH1 = conditions: Homo sapiens, HuH-1, 144 h; HUH1 liver cancer cell line; 6 days
Summary of the method: as §1

Hep3B2.1-7 = conditions: 144 h; Hep3B2.1-7 liver cancer cell line; 6 days
Summary of the method: as §1

NCl-H716 = conditions: 144 h; NCl-H716 tumor cell line; 6 days
Summary of the method: as §1

SNU449 = conditions: Homo sapiens, SNU-449, 144 h; SNU449 liver cancer cell line; 6 days
Summary of the method: as §1

JHH5 = conditions: 144 h; JHH5 liver cancer cell line; 6 days
Summary of the method: as §1

LNCAP-clone-FGC = conditions: Homo sapiens, 144 h; LNCAP-clone-FGC tumor cell line; 6 days
Summary of the method: as §1

NCl-H661 = conditions: 144 h; NCl-H661 tumor cell line; 6 days
Summary of the method: as §1

SNU354 = conditions: Homo sapiens, SNU-354, 144 h; SNU354 liver cancer cell line; 6 days
Summary of the method: as §1

LC-2-ad = conditions: Homo sapiens, 144 h; LC-2-ad tumor cell line; 6 days
Summary of the method: as §1

TE-6 = conditions: Homo sapiens, 144 h; TE-6 tumor cell line; 6 days
Summary of the method: as §1

Row | SMILES | IC50 (DU145) | IC50 (SNU398) | IC50 (SNU475) | IC50 (NCl-H2170) | IC50 (NCl-H526) | IC50 (CCRF-CEM) | IC50 (HT1080) | IC50 (HUH6) | IC50 (SNU886) | IC50 (SK-HEP-1) | IC50 (MDA-MB-231) | IC50 (HUH1) | IC50 (Hep3B2.1-7) | IC50 (NCl-H716) | IC50 (SNU449) | IC50 (LNCAP-clone-FGC) | IC50 (NCl-H661) | IC50 (HLE) | IC50 (JHH2) | IC50 (JHH5) | other results
1 | Cc1ccc(F)c(NC(=O)Nc2ccc(-c3cccc4c3c(N)nn4C(=O)C[C@H](N)C(=O)N[C@@H](CCC(=O)O)C(=O)O)cc2)c1 [Compound 1] | 2.76 µM | 2.61 µM | 4.85 µM | 0.97 µM | 6.6 µM | 2.5 µM | 13.2 µM | 130 nM | 1.47 µM | 4.59 µM | 3.95 µM | 4.42 µM | 1.59 µM | 1.82 µM | 5.21 µM | 5.47 µM | 7.09 µM | 1.98 µM | 28.9 µM | 15.2 µM | IC50 (SNU354): 3.91 µM; IC50 (LC-2-ad): 8.89 µM; IC50 (TE-6): 4.29 µM
2 | Cc1ccc(F)c(NC(=O)Nc2ccc(-c3cccc4c3c(N)nn4C(=O)CCCCCNC(=O)C[C@H](N)C(=O)N[C@@H](CCC(=O)O)C(=O)O)cc2)c1 [Compound 4] | 38 µM | 96.5 µM | 81.3 µM | 84 µM | > 100 µM | 51.7 µM | > 100 µM | 53800 nM | 96.2 µM | 64 µM | 96.5 µM | 66.8 µM | 69.8 µM | 43.8 µM | > 100 µM | 75.3 µM | 99.5 µM | 47.5 µM | > 100 µM | > 100 µM | IC50 (SNU354): 78.8 µM; IC50 (LC-2-ad): 36.9 µM; IC50 (TE-6): > 100 µM
3 | Cc1ccc(F)c(NC(=O)Nc2ccc(-c3cccc4c3c(N)nn4C(=O)CCCCCNC(=O)C[C@H](N)C(=O)N[C@@H](CCC(=O)N[C@@H](CCC(=O)N[C@@H](CCC(=O)N[C@@H](CCC(=O)O)C(=O)O)C(=O)O)C(=O)O)C(=O)O)cc2)c1 [Compound 5] | 55.4 µM | > 100 µM | > 100 µM | > 100 µM | > 100 µM | 70.3 µM | > 100 µM | 72200 nM | > 100 µM | 85.1 µM | > 100 µM | 82.3 µM | 76.5 µM | 66.7 µM | > 100 µM | > 100 µM | > 100 µM | 53.4 µM | > 100 µM | > 100 µM | IC50 (SNU354): > 100 µM; IC50 (LC-2-ad): 51.3 µM; IC50 (TE-6): > 100 µM

Further lines, with some results ahead:

Row | IC50 (DU145) | IC50 (SNU398) | IC50 (SNU475) | IC50 (NCl-H2170) | IC50 (NCl-H526) | IC50 (CCRF-CEM) | IC50 (HT1080) | IC50 (HUH6) | IC50 (SNU886) | IC50 (SK-HEP-1) | IC50 (MDA-MB-231) | IC50 (HUH1) | IC50 (Hep3B2.1-7) | IC50 (NCl-H716) | IC50 (SNU449) | IC50 (LNCAP-clone-FGC) | IC50 (NCl-H661) | SMILES | IC50 (HLE) | IC50 (JHH2) | IC50 (JHH5) | other results
4 | 4.89 µM | 6.37 µM | 6.37 µM | 3.46 µM | 8.94 µM | 6.33 µM | 19.3 µM | 820 nM | 3.75 µM | 9.25 µM | 5.02 µM | 6.71 µM | 3.43 µM | 2.84 µM | 8.39 µM | 6.34 µM | 11.3 µM | Cc1ccc(F)c(NC(=O)Nc2ccc(-c3cccc4c3c(N)nn4C(=O)C[C@H](N)C(=O)N[C@@H](CCC(=O)N[C@@H](CCC(=O)N[C@@H](CCC(=O)N[C@@H](CCC(=O)O)C(=O)O)C(=O)O)C(=O)O)C(=O)O)cc2)c1 [Compound 2] | 2.69 µM | 36 µM | 21.3 µM | IC50 (SNU354): 7.01 µM; IC50 (LC-2-ad): 13.5 µM; IC50 (TE-6): 7.03 µM
5 | 7.38 µM | 17.1 µM | 9.62 µM | 7.89 µM | 11.3 µM | 10.2 µM | 25.8 µM | 1550 nM | 9.06 µM | 15.8 µM | 8.51 µM | 7.93 µM | 5.33 µM | 6.09 µM | 14.6 µM | 15.4 µM | 21.1 µM | Cc1ccc(F)c(NC(=O)Nc2ccc(-c3cccc4c3c(N)nn4C(=O)C[C@H](N)C(=O)N[C@@H](CCC(=O)N[C@@H](CCC(=O)N[C@@H](CCC(=O)N[C@@H](CCC(=O)N[C@@H](CCC(=O)N[C@@H](CCC(=O)N[C@@H](CCC(=O)N[C@@H](CCC(=O)N[C@@H](CCC(=O)O)C(=O)O)C(=O)O)C(=O)O)C(=O)O)C(=O)O)C(=O)O)C(=O)O)C(=O)O)C(=O)O)cc2)c1 [Compound 3] | 4.72 µM | 40.7 µM | 31 µM | IC50 (SNU354): 16.8 µM; IC50 (LC-2-ad): 22.4 µM; IC50 (TE-6): 11.3 µM
